In assay [1] the target is T1, DNA primase (Mycobacterium tuberculosis (strain CDC 1551 / Oshkosh), UniProt P9WNW0).
T1 sequence (P9WNW0 whole entry): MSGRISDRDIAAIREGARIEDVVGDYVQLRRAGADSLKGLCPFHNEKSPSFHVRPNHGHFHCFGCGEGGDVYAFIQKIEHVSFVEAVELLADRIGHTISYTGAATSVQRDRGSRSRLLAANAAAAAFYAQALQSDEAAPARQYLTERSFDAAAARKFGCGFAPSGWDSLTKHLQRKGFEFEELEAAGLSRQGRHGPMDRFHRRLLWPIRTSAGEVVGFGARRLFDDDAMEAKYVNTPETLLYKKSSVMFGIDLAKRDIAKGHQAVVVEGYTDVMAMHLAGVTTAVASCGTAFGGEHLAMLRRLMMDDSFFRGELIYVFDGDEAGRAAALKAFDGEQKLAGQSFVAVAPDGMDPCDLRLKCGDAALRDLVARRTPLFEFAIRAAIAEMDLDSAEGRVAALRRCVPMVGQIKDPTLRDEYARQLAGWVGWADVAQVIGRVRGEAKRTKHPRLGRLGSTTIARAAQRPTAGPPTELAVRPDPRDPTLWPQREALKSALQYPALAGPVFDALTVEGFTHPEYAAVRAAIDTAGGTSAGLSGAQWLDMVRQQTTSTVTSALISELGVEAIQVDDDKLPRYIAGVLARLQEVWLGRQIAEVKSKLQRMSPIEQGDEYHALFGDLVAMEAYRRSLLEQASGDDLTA
The assay can be described thus: Quatitative Inhibition Analysis Assay. As to conditions: pH 8.8. Here is the method: (§1) The reaction mixture contained DNA (1.25 uM or as specified), NTP (110 uM or as specified), 50 mM NaCl, 150 mM potassium glutamate, buffer [20 mM CAPS (pH 8.8) or as specified], and divalent metals (2 mM Mn2+ and 1 mM Mg2+). The assay was performed in 96-well plates with 4 uM Ba DnaG.

The target in assay [2] is T2, DNA primase (Bacillus anthracis, UniProt A0A6L8PXB3).
T2 sequence (A0A6L8PXB3 whole entry): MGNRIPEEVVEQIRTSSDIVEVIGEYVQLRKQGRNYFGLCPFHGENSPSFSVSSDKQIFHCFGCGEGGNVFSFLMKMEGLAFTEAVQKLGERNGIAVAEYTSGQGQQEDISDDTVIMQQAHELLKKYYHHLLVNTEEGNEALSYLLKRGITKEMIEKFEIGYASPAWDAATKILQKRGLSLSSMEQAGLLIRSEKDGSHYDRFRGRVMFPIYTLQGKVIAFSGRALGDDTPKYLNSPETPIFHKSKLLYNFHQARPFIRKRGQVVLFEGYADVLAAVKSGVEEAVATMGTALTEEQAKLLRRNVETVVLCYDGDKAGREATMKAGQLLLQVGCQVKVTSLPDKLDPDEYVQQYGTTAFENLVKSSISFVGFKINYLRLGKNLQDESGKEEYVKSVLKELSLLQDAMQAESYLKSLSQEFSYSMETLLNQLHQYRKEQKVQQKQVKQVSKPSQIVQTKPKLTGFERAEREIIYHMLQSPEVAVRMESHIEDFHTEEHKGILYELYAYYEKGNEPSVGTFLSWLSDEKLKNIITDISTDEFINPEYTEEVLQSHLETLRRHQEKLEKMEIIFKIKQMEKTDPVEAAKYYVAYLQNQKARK
The assay can be described thus: Quatitative Inhibition Analysis Assay. As to conditions: pH 8.8. Here is the method: as §1

Structures are written as SMILES.

`COc1cccc2c1C(=O)c1c(O)c3c(c(O)c1C2=O)C[C@@](O)(C(=O)CO)C[C@@H]3O[C@H]1C[C@H](N)[C@H](O)[C@H](C)O1` [Adriamycin]: the results for the IC50 against DNA primase [1] and on DNA primase [2] were 9.3 µM and 4.4 µM, respectively.
The corresponding values for `CCN(CC)CCOc1ccc2c(c1)C(=O)c1cc(OCCN(CC)CC)ccc1-2` [Amixin IC] are 69 µM and 7.1 µM.
Take `O=c1oc2c(O)c(O)cc3c(=O)oc4c(O)c(O)cc1c4c23` [Elagic Acid]: the IC50 against DNA primase [2] was more than 100 µM.
The same measure, in the same setting: to `C[C@H]1COc2c(N3CCN(C)CC3)c(F)cc3c(=O)c(C(=O)O)cn1c23` [Levaquin] belongs 75 µM.
With `Cc1ccc(C(=O)Nc2ccc(S(=O)(=O)O)c3cc(S(=O)(=O)O)cc(S(=O)(=O)O)c23)cc1NC(=O)c1cccc(NC(=O)Nc2cccc(C(=O)Nc3cc(C(=O)Nc4ccc(S(=O)(=O)O)c5cc(S(=O)(=O)O)cc(S(=O)(=O)O)c45)ccc3C)c2)c1` [Suramin hexasodium], on DNA primase [2], the IC50 was 8.2 µM.
